{
  "source": "patent US10881729B2",
  "about": "“Vaccine adjuvant compositions” (CHILDREN'S MEDICAL CENTER CORPORATION, priority 2014, dated 2021)",
  "key": {"[1]": {"settings": "cited from earlier work"}, "newborn MoDCs": {"system": "newborn MoDCs", "experiment": "TNF-α ELISA of supernatants of stimulated newborn MoDCs", "type": "cell-based, human", "settings": "for TNF production in response to single TLR agonist, newborn compared to adult MoDCs: newborn vs adult MoDCs, FIG. 2", "protocol": "Isolated monocytes were seeded in 75 cm^2 tissue culture dishes for 5 days at 37° C. in a humidified incubator at 5% CO2 with 10^6 cells/ml medium. Medium consisted of RPMI 1640 medium with L-glutamine (GIBCO—LIFE TECHNOLOGIES, Carlsbad, Calif., USA) supplemented with 1% Penicillin-Streptomycin-Glutamine (PSG) (Invitrogen—Life Technologies, Carlsbad, Calif., USA) and 10% AP. This was supplemented with recombinant human (rh) IL-4 and rhGM-CSF (50 ng/ml and 100 ng/ml, respectively; R&D Systems, Minneapolis, Minn., USA). Additional fresh media and cytokines were provided on day 3 of incubation.\nAfter 5 days, immature MoDCs were harvested by gently pipetting only the loosely adherent fraction and re-plated (10^5 cells/well) in 96-well U-bottom plates in the presence or absence of TLRAs, and/or CLRAs, and/or sterile DPBS. This MoDC array was then incubated for 18-24 hours at 37° C. in a humidified incubator at 5% CO2. After this stimulation MoDCs were harvested and processed for further functional assays. (FIG. 2).\nSupernatants from MoDCs (GCI-DCs) stimulated for 18 hours in a humidified incubator (37° C., 5% CO2) with TLRAs, and/or CLRAs were analyzed for TNF-α production. For this, a human TNF enzyme-linked immunosorbent assay (ELISA) kit was used, and assay was performed according to manufacturer's instruction. (BD Biosciences, BD Biosciences, San Jose, Calif., USA). Results were read on a Versamax microplate reader with SoftMax Pro Version 5 (both from Molecular Devices, Sunnyville, Calif., USA).\nThe inventors further evaluated the ability of these two combinations of agonists to activate newborn MoDCs by establishing concentration-response curves and by investigating whether the enhancement in TNF secretion can be observed with similar agonists that activate the same receptors. In addition, the concentration-response curves were used to mathematically assess whether the observed enhancement by combining agonists is equal to the sum of the effects observed with individual agonists (i.e., was additive) or if these agonists activate the newborn cells synergistically. A modification of the Loewe definition of additivity was applied to determine whether the agonists act synergistically (D<1), additively (D=1) or antagonistically (D>1), where D=[Ac]/[Ae]+[Bc]/[Be], and [Ac] and [Bc] are the concentrations of compound A and B used in the dual (combined) stimulation and [Ae] and [Be] are the concentrations of A and B that induce an equal amount of TNF secretion alone."}, "newborn and adult MoDCs": {"system": "newborn and adult MoDCs", "experiment": "Gene expression by quantitative RT-PCR array, MPLA-stimulated newborn versus adult MoDCs", "type": "cell-based, human", "protocol": "Total ribonucleic acid (RNA) of newborn and adult MoDCs (GCI-DCs and TC-DCs) was isolated with the miRNeasy kit, according to manufacturer's instructions (QIAGEN®, Inc., Valencia, Calif., USA) Total RNA from both un-stimulated cells and cells stimulated with 1 μg/ml MPLA was isolated. RNA quality was analyzed for quality and quantity by using a NanoDrop 1000 spectrophotometer (Thermo Scientific, Wilmington, Del., USA). Complementary deoxyribonucleic acid (cDNA) was prepared from total RNA from each sample with a miScript II RT Kit, according to manufacturer's instructions (QIAGEN®, Inc., Valencia, Calif., USA). cDNA was quantified on a PAHS-052Z plate (QIAGEN®, Inc., Valencia, Calif., USA). Quantitative real time-polymerase chain reaction (RT-PCR) was run on a 7300 real time PCR system (APPLIED BIOSYSTEMS®—Life Technologies, Life Technologies, Carlsbad, Calif., USA)."}},
  "data": [
    {"compound": "CCOCc1nc2c(N)nc3ccccc3c2[nH]1", "note": "[CL097, 2-(ethoxymethyl)-1 H-imidazo[4,5-c]quinolin-4-amine]", "values": [
      {"measurement": "water solubility", "setting": "[1]", "value": "highly water-soluble"}
    ]},
    {"compound": "Pam3Cys", "values": [
      {"measurement": "TNF production in response to single TLR agonist, newborn compared to adult MoDCs", "setting": "newborn MoDCs", "value": "less TNF"}
    ]},
    {"compound": "Polyinosinic:polycytidylic acid [Poly I:C]", "values": [
      {"measurement": "TNF production in response to single TLR agonist, newborn compared to adult MoDCs", "setting": "newborn MoDCs", "value": "less TNF"}
    ]},
    {"compound": "glycopyranosyl lipid A [GLA]", "values": [
      {"measurement": "synergy in TNF production with the partner agonist named in the sentence", "setting": "newborn MoDCs; newborn MoDCs, VTX-294 for R848 (with TDB), GLA for MPLA (with Zymosan), BGP for Zymosan, Zymosan with MPLA or GLA", "value": "also present"}
    ]},
    {"compound": "monophosphoryl lipid A [MPLA]", "values": [
      {"measurement": "TNF gene expression, adults compared to newborns", "setting": "newborn and adult MoDCs; MPLA 1 μg/ml, 24 hours", "value": 2, "unit": "fold"},
      {"measurement": "IL-6 and IL-10, newborn MoDCs compared to adult MoDCs", "setting": "newborn and adult MoDCs; MPLA treatment, FIG. 1", "value": "more"},
      {"measurement": "expression levels of IRF7 and IRAK1, adult MoDCs compared to newborn", "setting": "newborn and adult MoDCs; MPLA treatment, FIG. 1", "value": "higher"},
      {"measurement": "IL6 and CXCL-8 (IL8) gene expression, newborn MoDCs compared to adult MoDCs", "setting": "newborn and adult MoDCs; after treatment with MPLA", "value": "greater"},
      {"measurement": "expression of IRF7, IRAK1 and NFKB1, adult MoDCs compared to newborn", "setting": "newborn and adult MoDCs; after treatment with MPLA", "value": "greater"},
      {"measurement": "TNF production in response to single TLR agonist, newborn compared to adult MoDCs", "setting": "newborn MoDCs", "value": "less TNF"}
    ]}
  ]
}
